One assay has as its target T1, IKKε (Homo sapiens, UniProt Q14164).
T1 construct: His-tag; made in house; host or cells: Sf9 insect cells
T1 sequence (Q14164 1-716): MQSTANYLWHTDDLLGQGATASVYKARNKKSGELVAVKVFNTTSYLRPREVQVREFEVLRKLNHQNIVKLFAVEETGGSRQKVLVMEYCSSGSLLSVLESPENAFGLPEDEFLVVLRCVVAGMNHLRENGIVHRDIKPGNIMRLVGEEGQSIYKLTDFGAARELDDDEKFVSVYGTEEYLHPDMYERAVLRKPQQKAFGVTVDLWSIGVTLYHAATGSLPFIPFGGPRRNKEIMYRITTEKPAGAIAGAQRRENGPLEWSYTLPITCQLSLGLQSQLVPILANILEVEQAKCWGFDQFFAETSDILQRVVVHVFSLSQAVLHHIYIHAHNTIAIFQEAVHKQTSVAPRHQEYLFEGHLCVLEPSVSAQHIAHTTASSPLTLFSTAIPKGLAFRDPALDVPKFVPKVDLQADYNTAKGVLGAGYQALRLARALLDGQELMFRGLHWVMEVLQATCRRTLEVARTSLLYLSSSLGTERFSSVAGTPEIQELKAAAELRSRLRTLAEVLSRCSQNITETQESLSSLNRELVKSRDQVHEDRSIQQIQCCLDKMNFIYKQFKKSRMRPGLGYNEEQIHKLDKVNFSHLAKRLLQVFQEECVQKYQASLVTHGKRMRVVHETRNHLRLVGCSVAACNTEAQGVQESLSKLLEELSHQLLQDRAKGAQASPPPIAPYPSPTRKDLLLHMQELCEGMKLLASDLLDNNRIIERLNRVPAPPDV
The assay is described as follows: In-vitro IKKε kinase assay ([γ33]ATP filter-plate). The class given is biochemical. An outline of the steps:
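His-tagged Sf9-expressed kinases at 0.1 or 0.02 μg/ml (TBK1) and 0.1 or 0.015 μg/ml (IKKε) for normal and sensitized formats, with myelin basic protein or casein substrate. ATP was at 2×Km (60 μM TBK1, 32 μM IKKε) plus 0.3 μCi [γ33]ATP. Reactions ran 30-45 min, were captured on P-81 filters, and counts were normalized to DMSO.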

Another assay concerns the target T2, TBK1 (Homo sapiens, UniProt Q9UHD2).
T2 construct: His-tag; made in house; host or cells: Sf9 insect cells
T2 sequence (Q9UHD2 1-729): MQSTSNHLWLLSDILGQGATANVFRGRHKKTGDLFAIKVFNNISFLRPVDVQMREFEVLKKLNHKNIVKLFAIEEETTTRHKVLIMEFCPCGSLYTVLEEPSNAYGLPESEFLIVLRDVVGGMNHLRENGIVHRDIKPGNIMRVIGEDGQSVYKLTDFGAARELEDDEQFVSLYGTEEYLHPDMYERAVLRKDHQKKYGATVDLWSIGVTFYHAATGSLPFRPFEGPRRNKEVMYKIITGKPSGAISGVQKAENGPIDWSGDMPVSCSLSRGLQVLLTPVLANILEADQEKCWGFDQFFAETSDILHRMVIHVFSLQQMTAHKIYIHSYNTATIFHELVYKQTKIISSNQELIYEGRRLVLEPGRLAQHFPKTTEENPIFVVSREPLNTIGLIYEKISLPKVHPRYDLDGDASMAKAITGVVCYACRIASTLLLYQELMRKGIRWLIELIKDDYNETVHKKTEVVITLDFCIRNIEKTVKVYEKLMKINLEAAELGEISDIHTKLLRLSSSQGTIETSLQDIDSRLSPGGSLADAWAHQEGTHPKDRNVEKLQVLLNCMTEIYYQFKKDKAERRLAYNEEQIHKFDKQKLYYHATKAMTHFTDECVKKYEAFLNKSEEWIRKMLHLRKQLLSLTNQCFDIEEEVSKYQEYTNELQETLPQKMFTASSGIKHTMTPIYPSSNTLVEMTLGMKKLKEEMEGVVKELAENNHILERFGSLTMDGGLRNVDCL
Kind of assay: In-vitro TBK1 kinase assay ([γ33]ATP filter-plate). It counts as biochemical. How it is done:
IKKε enzyme was produced as a His-tag fusion in Sf9 cells and used at a final concentration of […]. TBK1 enzyme was produced as a His-tag fusion in Sf9 cells and used at a final concentration of 0.1 μg/ml. Kinase reactions were carried out in reaction buffer using myelin basic protein (Millipore, Ballerica, Mass.) or casein (Sigma, St. Louis, Mo.) as substrate at an ATP concentration equal to twice the Km,ATP value for each enzyme, corresponding to 32 μM ATP for IKKε and 60 μM ATP for TBK1, in the presence of 0.3 μCi [γ^33]ATP (PerkinElmer, Waltham, Mass.). Final enzyme concentrations were 0.1 or 0.015 μg/ml (IKKε) and 0.1 or 0.02 μg/ml (TBK1), representing “normal” and “sensitized” assay conditions respectively. Test compounds (or DMSO solvent as a control) were added prior to initiation of the reactions. Reactions were terminated after 30-45 minutes by adding 3% phosphoric acid. Terminated reactions were transferred to P-81 cellulose phosphate filterplates (Whatman, Inc., Piscataway, N.J.) and washed with 1% phosphoric acid on a vacuum apparatus. After air drying, scintillant (PerkinElmer, Waltham, Mass.) was added and the plates were read on a PerkinElmer TopCount NXT instrument. Counts were normalized to DMSO controls after background subtraction.

[1] abbreviates: text bins, read-out: IC50 for inhibition of the kinase activity of IKKε.
[2] abbreviates: text bins, read-out: IC50 for inhibition of the kinase activity of TBK1.

Each structure is given as a SMILES string. Like-named read-outs stand apart in the source and are kept apart here. A value given as a limit tells only on which side of the number the result lay.

With `N#Cc1cc(-c2ccnc(Nc3ccc4ncsc4c3)n2)ccc1OC1CCOCC1` [Example 16, 5-[2-(1,3-benzothiazol-6-ylamino)pyrimidin-4-yl]-2-(tetrahydro-2H-pyran-4-yloxy)benzonitrile], the IC50 (in general, the concentration that gives 50% inhibition) was less than 5 nM at IKKε (setting [1]) and less than 10 nM on TBK1 (setting [2]).

On to `COc1ccc(-c2ccnc(Nc3ccc(N4CCC(N5CCN(C)CC5)CC4)c(OC)c3)n2)cc1C#N` [Example 65, 2-Methoxy-5-[2-({3-methoxy-4-[4-(4-methylpiperazin-1-yl)piperidin-1-yl]phenyl}amino)pyrimidin-4-yl]benzonitrile], for which the results for the IC50 on IKKε (setting [1]) and at TBK1 (setting [2]) were 5 to 50 nM and less than 10 nM, respectively.

In the case of `CS(=O)(=O)N1CCN(c2ccc(Nc3nccc(-c4ccc(OC5CCOCC5)c(C#N)c4)n3)cc2)CC1` [Example 100, 5-[2-({4-[4-(methylsulfonyl)piperazin-1-yl]phenyl}amino)pyrimidin-4-yl]-2-(tetrahydro-2H-pyran-4-yloxy)benzonitrile], the IC50 was less than 5 nM at IKKε (setting [1]) and less than 10 nM at TBK1 (setting [2]).

For `N#Cc1cc(-c2nc(Nc3ccc(N4CCOCC4)cc3)nc3[nH]cnc23)ccc1OC1CCOCC1` [compound 553], the figures for the IC50 at IKKε (setting [1]) and at TBK1 (setting [2]) were 5 to 50 nM and 10 to 100 nM, respectively.

With `CCN(CC)CCN(CC)C(=O)Cc1cccc(Nc2nccc(-c3ccc(OC4CCOCC4)c(C#N)c3)n2)c1` [compound 409, 2-[3-({4-[3-Cyano-4-(tetrahydro-2H-pyran-4-yloxy)phenyl]pyrimidin-2-yl}amino)phenyl]-N-[2-(diethylamino)ethyl]-N-ethylacetamide], the IC50 on IKKε (setting [1]) was 5 to 50 nM; at TBK1 (setting [2]), less than 10 nM.

Turning to `CC(=O)N1CCC(Oc2ccc(-c3ccnc(Nc4ccc(N5CCOCC5)cc4)n3)cc2C#N)CC1` [Example 86, 2-[(1-Acetylpiperidin-4-yl)oxy]-5-(2-{[4-(morpholin-4-yl)phenyl]amino}pyrimidin-4-yl)benzonitrile], the results for the half-inhibitory concentration (IC50) at IKKε (setting [1]) and at TBK1 (setting [2]) were 5 to 50 nM and 10 to 100 nM, respectively.

Take `COc1cc(-c2ccnc(Nc3ccc(N4CCOCC4)cc3)n2)cc(C#N)c1OC1CCOCC1` [compound 467, 3-methoxy-5-(2-{[4-(morpholin-4-yl)phenyl]amino}pyrimidin-4-yl)-2-(tetrahydro-2H-pyran-4-yloxy)benzonitrile]: the IC50 was 3.5 nM at IKKε (Table 3, read-out: IKKε IC50); less than 5 nM at IKKε (setting [1]); 0.2 nM at TBK1 (Table 3, read-out: TBK1 IC50); less than 10 nM at TBK1 (setting [2]).

`COc1ccc(-c2ccnc(Nc3ccc(S(=O)(=O)NCCCN(C)C)c(OC)c3)n2)cc1C#N` [compound 375, 4-{[4-(3-Cyano-4-methoxyphenyl)pyrimidin-2-yl]amino}-N-[3-(dimethylamino)propyl]-2-methoxybenzene-sulfonamide]: the figures for the IC50 at IKKε (setting [1]) and at TBK1 (setting [2]) were 5 to 50 nM and 10 to 100 nM, respectively.

Take `COc1ccc(-c2ccnc(Nc3ccc(N4CCNC(=O)C4)cc3)n2)cc1C#N` [Example 71, 2-Methoxy-5-(2-{[4-(3-oxopiperazin-1-yl)phenyl]amino}pyrimidin-4-yl)benzonitrile]: the IC50 on IKKε (setting [1]) was in the range of 5 to 50 nM; at TBK1 (setting [2]), 10 to 100 nM.

For the molecule `N#Cc1cc(-c2ccnc(Nc3cccc(CS(=O)(=O)NCCO)c3)n2)ccc1OCC1CC1` [compound 611, 1-[3-({4-[3-Cyano-4-(cyclopropylmethoxy)phenyl]pyrimidin-2-yl}amino)phenyl]-N-(2-hydroxyethyl) methanesulfonamide], the IC50 is 1.5 nM on IKKε (Table 3, read-out: IKKε IC50); less than 5 nM on IKKε (setting [1]); 0.6 nM at TBK1 (Table 3, read-out: TBK1 IC50); less than 10 nM at TBK1 (setting [2]).

Take `N#Cc1cc(-c2ccnc(Nc3cccc(CNCCN4CCOCC4)c3)n2)ccc1OC1CCOCC1` [compound 569, 5-(2-{[3-({[2-(Morpholin-4-yl)ethyl]amino}methyl)phenyl]amino}pyrimidin-4-yl)-2-(tetrahydro-2H-pyran-4-yloxy)benzonitrile]: the IC50 at IKKε (setting [1]) fell in the range of 5 to 50 nM; at TBK1 (setting [2]), 10 to 100 nM.

As to `CC(C)CC(=O)Nc1ccc(-c2ccnc(Nc3ccc(N4CCOCC4)cc3)n2)cc1C#N` [Example 1, N-[2-cyano-4-(2-{[4-(morpholin-4-yl)phenyl]amino}pyrimidin-4-yl)phenyl]-3-methylbutanamide], the values for the IC50 at IKKε (setting [1]) and on TBK1 (setting [2]) were 5 to 50 nM and less than 10 nM, respectively.

For the molecule `N#Cc1cc(-c2ccnc(Nc3ccc(NC(=O)N4CCOCC4)cc3)n2)ccc1OC1CCOCC1` [Example 13, N-[4-({4-[3-cyano-4-(tetrahydro-2H-pyran-4-yloxy)phenyl]pyrimidin-2-yl}amino)phenyl] morpholin-4-carboxamide], the IC50 at IKKε (setting [1]) was 5 to 50 nM; on TBK1 (setting [2]) it was less than 10 nM.

Consider `COCCNCc1ccc(Nc2nccc(-c3ccc(OCC4CC4)c(C#N)c3)n2)cc1` [compound 581, 2-(Cyclopropylmethoxy)-5-{2-[(4-{[(2-methoxyethyl)amino]methyl}phenyl)amino]pyrimidin-4-yl}benzonitrile], for which the IC50 is less than 5 nM on IKKε (setting [1]) and less than 10 nM at TBK1 (setting [2]).

As for `CC(C)C(=O)Nc1ccc(-c2ccnc(Nc3ccc(CC(=O)N4CCOCC4)cc3)n2)cc1C#N` [compound 419, N-{2-cyano-4-[2-({4-[2-(morpholin-4-yl)-2-oxoethyl]phenyl}amino)pyrimidin-4-yl]phenyl}-2-methylpropanamide], the results for the half-maximal inhibitory concentration (IC50) on IKKε (setting [1]) and on TBK1 (setting [2]) were 5 to 50 nM and 10 to 100 nM, respectively.

For `COc1ccc(-c2ccnc(Nc3ccc(N4CCN(C(C)C)C(=O)C4)c(OC)c3)n2)cc1C#N` [Example 38, 2-Methoxy-5-[2-({3-methoxy-4-[3-oxo-4-(propan-2-yl)piperazin-1-yl]phenyl}amino)pyrimidin-4-yl]benzonitrile], the values for the concentration for half-maximal inhibition (IC50) at IKKε (setting [1]) and at TBK1 (setting [2]) were 5 to 50 nM and less than 10 nM, respectively.

As to `COc1cc(Nc2nccc(-c3ccc(OC(C)C)c(C#N)c3)n2)cc(OC)c1` [Example 272, 5-{2-[(3,5-Dimethoxyphenyl)amino]pyrimidin-4-yl}-2-(propan-2-yloxy)benzonitrile], the IC50 at IKKε (setting [1]) lay within 5 to 50 nM; at TBK1 (setting [2]), 10 to 100 nM.

For the molecule `Cc1ccc(Nc2nccc(-c3ccc(NC(=O)C(C)C)c(C#N)c3)n2)cc1OCCCN1CCOCC1` [compound 410], the IC50 lay in the range of 5 to 50 nM at IKKε (setting [1]) and 10 to 100 nM on TBK1 (setting [2]).

Turning to `COc1ccc(Nc2nc(-c3cccc(C#N)c3)c3nc[nH]c3n2)cc1OC` [compound 390, 3-{2-[(3,4-Dimethoxyphenyl)amino]-3H-purin-6-yl}benzonitrile], the IC50 was in the range of 50 to 500 nM on IKKε (setting [1]) and 100 to 500 nM on TBK1 (setting [2]).

As for `COc1ccc(Nc2nccc(-c3ccc(O)c(C#N)c3)n2)cc1OC` [Example 118], the IC50 on IKKε (setting [1]) is less than 5 nM; at TBK1 (setting [2]) it was less than 10 nM.
